According to US20230183207A1 (priority 2020, published 2023):

Columns and labels:
[1] = test system: SARS-CoV-2; assay type: cell-based
[2] = test system: Vero-E6 and TMPRSS2-over-expressing Vero-E6 cells

Compound: C=CCn1ccc2c(C(=O)Oc3cncc(Cl)c3)cccc21 [GRL-0820S]
- block of cytopathic effect of SARS-CoV-2 (FIG. 2) [1]: significantly block the cytopathic effect

Compound: O=C(Oc1cncc(Cl)c1)c1cccc2[nH]ccc12 [GRL-0920S]
- toxicity [2]: without significant toxicity
- block of cytopathic effect of SARS-CoV-2 (FIG. 2) [1]: significantly block the cytopathic effect
